Results taken from patent US9345774B2, “Topical composition comprising a film-forming polymer for delivering an active ingredient to skin” (LEO PHARMA A/S, priority 2012, dated 2016).

Assay: Chemical stability of calcipotriol in contact with container inner coating
Format: physicochemical

Compound: C=C1/C(=C\C=C2/CCC[C@]3(C)[C@@H]([C@H](C)/C=C/[C@@H](O)C4CC4)CC[C@@H]23)C[C@@H](O)C[C@@H]1O [calcipotriol]
- chemical stability of calcipotriol (epoxyphenol resin inner lacquer): unacceptable chemical degradation
- chemical stability of calcipotriol (polyimide-polyamide resin as inner coating): satisfactory
